Results published in patent publication EP3818977A1, “CD93 INHIBITORS FOR USE IN THE TREATMENT OF CANCER” (Universität Bern, priority 2019, dated 2021).

Experiments:
[1] = test system: murine LSCs; test: Colony assay of murine LSCs in methylcellulose; format: cell-based, mouse
Description: Colony assays from BM lin^- cells of CML and naive mice and CD34^+ stem/progenitor cells of human CML patients were performed as described before ([…] et al. 2015). For mouse colony assays 10^3 FACS-purified LSKs or LSCs were plated in methylcellulose and colonies were enumerated 7 days later. For serial re-plating experiments, 10^4 cells were collected from preceding colony assays and re-plated in methylcellulose. Colonies were enumerated 7 days later. For experiments using metoclopramide (Sigma), 10^3 FACS-purified murine LSCs or 2x10^3 human CD34^+ […] methylcellulose. Colony were enumerated 7 days and 14 days later, respectively. For re-plating assays 10^4or 2x10^4 cells isolated from primary mouse and human colony assays, respectively, were subsequently replated in methylcellulose in the absence of any compound. Colony were enumerated 7 days and 14 days later, respectively.

[2] = test system: human CD34^+CD38^- LSCs; test: Colony and re-plating assay of human CML stem/progenitor cells in semisolid culture; format: cell-based; conditions: 0.1µM, semisolid cultures, compared to control treatment
Description: Colony assays from BM lin^- cells of CML and naive mice and CD34^+ stem/progenitor cells of human CML patients were performed as described before (Riether et al. 2015).
For experiments using metoclopramide (Sigma), 10^3 FACS-purified murine LSCs or 2x10^3 human CD34^+ stem/progenitor cells were incubated overnight in 96 well V-bottom plates in the presence of 0.1 and 1µM metoclopramide or vehicle followed by plating methylcellulose. Colony were enumerated 7 days and 14 days later, respectively.
For re-plating assays 10^4or 2x10^4 cells isolated from primary mouse and human colony assays, respectively, were subsequently replated in methylcellulose in the absence of any compound. Colony were enumerated 7 days and 14 days later, respectively.

Structure (SMILES) | colony formation of murine LSCs [1] | clonogenic potential of CD93-competent LSCs ([1]; in vitro, BL/6 LSCs cultured overnight with 1mM metoclopramide (Fig. 6H), colonies assessed 7 days later) | colony formation of CD93-deficient LSCs ([1]; in vitro, Cd93^-/- LSCs cultured overnight with 1mM metoclopramide (Fig. 6H), colonies assessed 7 days later) | colony formation [2] | re-plating capacity ([2]; re-plating in the absence of compound)
CCN(CC)CCNC(=O)c1cc(Cl)c(N)cc1OC [metoclopramide, Metoclopramide] | effective in reducing colony formation of murine LSCs | reduced clonogenic potential of CD93-competent LSCs to comparable levels as CD93-deficient LSCs | without further affecting colony formation of CD93-deficient LSCs | significantly impaired | significantly impaired
CC(CN1c2ccccc2Sc2ccccc21)N(C)C (stereo not drawn) [promethazine, Promethazine] | effective in reducing colony formation of murine LSCs | – | – | – | –
